The text below walks through data of patent publication US11576914B2, “Drug for treating or preventing disorder caused by TGF-β signaling, and application thereof” (THE DOSHISHA, priority 2017, dated 2023).

Data set [1] concerns human corneal endothelial cells. The data set is described as follows: Cell Titer-Glo Luminescent Cell Viability Assay in the presence of AKP-001. The format is cell-based. The conditions noted are these: 24 hours. The protocol: Human corneal endothelial cells were peeled off with Descemet's membranes from research-purpose donor corneas, followed by culturing. For the medium, the following was used: OptiMEM-I (invitrogen, 31985-088)+8% FBS (Thermo, SH30084.03)+5 ng/mL epidermal growth factor (invitrogen, PHG0311)+20 μg/mL L-ascorbic acid 2-sesquimagnesium phosphate hydrate (SIGMA, A8960)+200 mg/L calcium chloride dihydrate (SIGMA, C7902)+0.08% chondroitin sulfate (Wako Pure Chemical Industries, Ltd., 032-14613)+50 μg/mL gentamicin (invitrogen, 15710-064)+1 μM SB431542 (WAKO, 192-16541)+10 μM SB203580 (Cayman, 13067). Culture dishes pre-coated with laminin-511E8 (Nippi, 381-07363) were used.
Cultured human corneal endothelial cells were seeded at a rate of 1×10^4 per well in a 96-well plate coated with laminin-511E8, and the cells were cultured until reaching confluence at 37° C. (5% CO2). For the medium, used was OptiMEM-I (invitrogen, 31985-088)+8% FBS (Thermo, SH30084.03)+5 ng/mL epidermal growth factor (invitrogen, PHG0311)+20 μg/mL L-ascorbic acid 2-sesquimagnesium phosphate hydrate (SIGMA, A8960)+200 mg/L calcium chloride dihydrate (SIGMA, C7902)+0.08% chondroitin sulfate (Wako Pure Chemical Industries, Ltd., 032-14613)+50 μg/mL gentamicin (invitrogen, 15710-064)+1 μM SB431542 (WAKO, 192-16541)+10 μM SB203580 (Cayman, 13067).
Upon reaching confluence, the culturing was further conducted for one more week with OptiMEM-I (invitrogen, 31985-088)+8% FBS (Thermo, SH30084.03)+20 μg/mL+200 mg/L calcium chloride dihydrate (SIGMA, C7902)+0.08% chondroitin sulfate (Wako Pure Chemical Industries, Ltd., 032-14613)+50 μg/mL gentamicin (invitrogen, 15710-064). […]
The medium was discarded to 50 μl per well, and Cell Titer-Glo Luminescent Cell Viability Assay solution (Promega, G7572) was added to the 50 μl/well to reach 1:1 with the medium. […] After standing, 50 μl was transferred to an Assay plate (Corning, 3912, Assay plate well, white polystyrene), and the […] was measured using GloMax-Multi Detection System (Promega, E7051).
A general note: In ATP-based viability assays light output follows the ATP content of the culture.

The next data set relates to rabbits. Kind of data set: Eye irritation testing (AKP-001 instillation). The format is in vivo, rabbit. The protocol: Rabbits that met the above criteria were used in the testing. The testing was carried out using a total of 4 rabbits. Fifty μl of 0.1 mM AKP-001 was instilled into the right eyes of the rabbits, and the eyes were maintained in a closed state for 30 seconds. The left eyes were instilled with a vehicle in the same manner. This operation was performed every 30 minutes and 10 times in total.
The anterior eye part was observed before and after the instillation using a slit lamp microscope (SL-D7, Topcon). The anterior eye part was stained with fluorescein sodium test paper (Showa Yakuhin Kako Co., Ltd.) and observed with a slit lamp microscope with regard to the presence or absence of corneal epithelial disorder. Further, the corneal thickness, corneal shape, and corneal volume thereof were analyzed using Pentacam® HR (OCULUS). The corneal endothelium was observed using a scanning slit-type, contact-type corneal endothelium specular microscope (Konan Medical, Inc.). Further, the central corneal thickness was measured using an ultrasonic pachymeter (SP-100, Tomey Corporation), and the intraocular pressure was measured using Tonovet® (ME Technica).
Corneal transparency was evaluated by the following Grading.
Opacity: degree of turbidity (the most turbid area is read.)

For data set [2], the system named is immortalized human corneal endothelial cells (iHCEC). Kind of data set: Cell damage by ER stress induced by thapsigargin. The format is cell-based. The following applies: 24 hours pretreatment, 20 μM thapsigargin 3 hours. How it is done:
The medium was removed from a culture dish in which immortalized human corneal endothelial cells (iHCEC) were being cultured, and the cells were supplemented with 1×PBS (−) that was preheated to 37° C., and were washed. This operation was repeated twice. The cells were supplemented again with 1×PBS (−) and incubated for 5 minutes at 37° C. (5% CO2). After removing the PBS (−), the cells were supplemented with 0.05% Trypsin-EDTA (Nacalai Tesque, 32778-34) and incubated for 5 minutes at 37° C. (5% CO2). The cells were then suspended in a medium, and collected by centrifugation at 1500 rpm for 3 minutes. DMEM (Nacalai Tesque, 08456-36)+10% FBS (Biowest, S1820-500)+1% P/S (Nacalai Tesque, 26252-94) was used as the medium. Immortalized human corneal endothelial cells (lot: iHCEC1-1) were seeded on a 12-well plate at a ratio of 8×10^4 cells per well and cultured for 48 hours at 37° C. (5% CO2) while using DMEM+10% FBS+1% P/S as the medium. The medium was then removed, and each inhibitor was added to culture the cells for 24 hours using DMEM+2% FBS+1% P/S as the medium. The medium was then removed. A medium (DMEM+2% FBS+1% P/S) containing 20 μM thapsigargin (Wako, 209-17281) and AKP-001 was added to culture the cells for 3 hours. Then, the cell morphology and apoptosis were observed using a phase contrast microscope.

Where [3] appears, read: prior to and after 10 instillations.

Where “and” joins values, the source holds several entries; their conditions need not be identical. Identical values can stand only once. Entries after “also recorded” stand apart in the source; their conditions may differ.

For the compound `O=C(Cc1c(F)cccc1Cl)Nc1onc(-c2ccc(F)cc2)c1-c1ccncn1` [AKP-001, 5-[(2-chloro-6-fluorophenyl)acetylamino]-3-(4-fluorophenyl)-4-(4-pyrimidinyl)isoxazole], in data set [1] (0.1 μM, 0.3 μM, 1 μM, 3 μM or 10 μM), the “cell damage (cell viability)” value is recorded as “no cell damage was observed”. The “number of the cells (cell viability)” value in data set [1] (30 μM and 100 μM) is reported as “significantly reduced the number of the cells”. In addition, the “concentrations at which less toxic to the cells” value in data set [1] is on record as “less than 30 μM”. Besides, in the data set with rabbits (0.1 mM instilled 10 times), the “corneal thickness (Pentacam HR)” value is given as “No obvious changes”; the “epithelial disorder of the keratoconjunctiva, fluorescein staining” value is given as “no epithelial disorder of the stained keratoconjunctiva was observed”; the hyperemia result is on record as “no hyperemia was observed”; the “inflammation of the anterior eye part” value is “no inflammation or the like was observed; also recorded: no inflammation of the anterior eye part was observed”. In the data set on rabbits (0.1 mM instilled 10 times), the “shape of the cornea (Scheimpflug images)” value is listed as “No obvious change”. Also, the “corneal endothelium, specular microscope images” value in the data set on rabbits (10 instillations) is on record as “No obvious changes”. The “cornea, slit lamp microscope” value in the data set on rabbits (50 μl of 0.1 mM instilled 10 times every 30 minutes) is “transparent”. Besides, the corneal transparency score result with rabbits (before and after 10 instillations, all the corneas) was “zero and 0”. Also, in the data set with rabbits (setting [3]), the “central corneal thickness (ultrasonic pachymeter)” value is given as “No significant changes”; the “corneal volume (10 mm diameter, Pentacam HR)” value is on record as “No significant changes”; the “intraocular pressure (Tonovet)” value was “No significant changes”. Moreover, the “damage to the corneal endothelial cells” value in data set [2] is “suppression of damage to the corneal endothelial cells was observed”.
